Assay results: PubChem BioAssay AID328 (DTP/NCI, 2004)
Values joined by “and” are separate entries in the source; they are usually repeats but may differ in a detail not shown here. Equal values may be shown once. Inconclusive results and toxic doses are left out. How the source made its calls: active means survival T/C of 150% or more; inactive means T/C below 125% in these data.

Test system: BDF1 mice, P388 leukemia ip, median survival T/C
Experiment: NCI In Vivo Anticancer Drug Screen. Data for tumor model P388 Leukemia (intraperitoneal) in B6D2F1 (BDF1) mice
Conditions: endpoint: median survival time, higher = longer survival
Method in brief: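 Compound-treated tumour-bearing mice were compared with vehicle-treated controls. Survival was recorded, and the value is the treated-group measurement divided by the control-group measurement (T/C).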

[1] = dose: 100.0 mg/kg/injection, schedule: Q04DX003 (ip), vehicle: Klucel (hydroxypropylcellulose) (HPC)
[2] = dose: 200.0 mg/kg/injection, schedule: Q04DX003 (ip), vehicle: Klucel (hydroxypropylcellulose) (HPC)
[3] = dose: 400.0 mg/kg/injection, schedule: Q04DX003 (ip), vehicle: Klucel (hydroxypropylcellulose) (HPC)
[4] = dose: 50.0 mg/kg/injection, schedule: Q04DX003 (ip), vehicle: Klucel (hydroxypropylcellulose) (HPC)
[5] = dose: 100.0 mg/kg/injection, schedule: Q04DX003 (ip), vehicle: saline with Tween-80

Measured: T/C

c1ccc(-c2c(-c3ccccc3)c(-c3ccccc3)c(-c3ccccc3)c(-c3ccccc3)c2-c2ccccc2)cc1
inactive: dose: 6.25 mg/kg/injection, schedule: Q01DX009 (ip), vehicle: water 93 % of control | dose: 12.5 mg/kg/injection, schedule: Q01DX009 (ip), vehicle: water 115 % of control | dose: 12.5 mg/kg/injection, schedule: Q04DX003 (ip), vehicle: water 106 % of control | dose: 25.0 mg/kg/injection, schedule: Q04DX003 (ip), vehicle: water 106 % of control and 108 % of control | dose: 50.0 mg/kg/injection, schedule: Q01DX009 (ip), vehicle: water 90 % of control | dose: 50.0 mg/kg/injection, schedule: Q04DX003 (ip), vehicle: water 100 % of control and 109 % of control | dose: 100.0 mg/kg/injection, schedule: Q01DX009 (ip), vehicle: water 89 % of control | dose: 100.0 mg/kg/injection, schedule: Q04DX003 (ip), vehicle: water 88 % of control and 97 % of control

C(=C/c1ccc(/C=C/c2ccccc2)cc1)/c1ccccc1
inactive: dose: 65.0 mg/kg/injection, schedule: Q01DX009 (ip), vehicle: Klucel (hydroxypropylcellulose) (HPC) 100 % of control | dose: 66.7 mg/kg/injection, schedule: Q01DX009 (ip), vehicle: Klucel (hydroxypropylcellulose) (HPC) 111 % of control | dose: 100.0 mg/kg/injection, schedule: Q01DX009 (ip), vehicle: Klucel (hydroxypropylcellulose) (HPC) 94 % of control and 95 % of control | [1] 90 % of control | dose: 150.0 mg/kg/injection, schedule: Q01DX009 (ip), vehicle: Klucel (hydroxypropylcellulose) (HPC) 100 % of control and 116 % of control | [2] 110 % of control | dose: 400.0 mg/kg/injection, schedule: Q01DX009 (ip), vehicle: Klucel (hydroxypropylcellulose) (HPC) 113 % of control | [3] 105 % of control

S=c1[nH]c2ccccc2s1
inactive: [4] 109 % of control | dose: 100.0 mg/kg/injection, schedule: Q01DX001 (ip), vehicle: Klucel (hydroxypropylcellulose) (HPC) 100 % of control | [1] 100 % of control | dose: 200.0 mg/kg/injection, schedule: Q01DX001 (ip), vehicle: Klucel (hydroxypropylcellulose) (HPC) 108 % of control | [2] 100 % of control and 123 % of control | dose: 400.0 mg/kg/injection, schedule: Q01DX001 (ip), vehicle: Klucel (hydroxypropylcellulose) (HPC) 100 % of control | [3] 96 % of control

O=[N+]([O-])c1ccc(C[Se]c2ncnc3c2ncn3C2OC(CO)C(O)C2O)cc1 (stereo unspecified)
inactive: dose: 12.5 mg/kg/injection, schedule: Q04DX003 (ip), vehicle: saline 109 % of control | dose: 25.0 mg/kg/injection, schedule: Q04DX003 (ip), vehicle: saline 103 % of control | dose: 50.0 mg/kg/injection, schedule: Q04DX003 (ip), vehicle: saline 96 % of control | dose: 100.0 mg/kg/injection, schedule: Q04DX003 (ip), vehicle: saline 105 % of control

Cc1cc(C)c(C#N)c([S][Sn]([Cl])([Cl])[S]c2nc(C)cc(C)c2C#N)n1
inactive: [5] 97 % of control | dose: 200.0 mg/kg/injection, schedule: Q04DX003 (ip), vehicle: saline with Tween-80 98 % of control

O=C1N(Cl)C(=O)C(c2ccccc2)(c2ccc(F)cc2)N1Cl (stereo unspecified)
inactive: dose: 25.0 mg/kg/injection, schedule: Q04DX003 (ip), vehicle: Klucel (hydroxypropylcellulose) (HPC) 87 % of control | [4] 100 % of control | [1] 91 % of control

CC12CCC(C=C1N1CCCCC1)C(C)(C)O2 (stereo unspecified)
inactive: dose: 50.0 mg/kg/injection, schedule: Q01DX005 (ip), vehicle: saline with Tween-80 101 % of control | dose: 100.0 mg/kg/injection, schedule: Q01DX005 (ip), vehicle: saline with Tween-80 101 % of control | dose: 200.0 mg/kg/injection, schedule: Q01DX005 (ip), vehicle: saline with Tween-80 106 % of control

Cc1nc2nc(N)[nH]c(=O)c2[nH]1
inactive: dose: 25.0 mg/kg/injection, schedule: Q01DX009 (ip), vehicle: saline with Tween-80 112 % of control | dose: 50.0 mg/kg/injection, schedule: Q01DX009 (ip), vehicle: saline with Tween-80 124 % of control | dose: 100.0 mg/kg/injection, schedule: Q01DX009 (ip), vehicle: saline with Tween-80 104 % of control | [5] 109 % of control

CCCCCCCCCCCCCCCCNC(C)c1ccccc1 (stereo unspecified)
inactive: dose: 12.5 mg/kg/injection, schedule: Q04DX003 (ip), vehicle: saline with Tween-80 101 % of control | dose: 25.0 mg/kg/injection, schedule: Q04DX003 (ip), vehicle: saline with Tween-80 106 % of control
